One series concerns red blood cells (RBCs). The series is classed as cell-based. Here is the method: Supplementary file pone.0017732.s005.tif: Figure S5 A) Photohemolysis of RBCs with TMR-TAT. Short light exposure tat 560 nm to RBCs incubated with TMR-TAT (3 µM) causes lysis and formation of ghost cells as observed by bright field imaging. Lysis of more than 90% of the cells can be achieved when light exposure is increased. Initially, the ghosts formed appear to have a constant diameter as shown in the images corresponding to exposure at 20 J/cm^2 and 60 J/cm^2. As light exposure is increased, the ghosts shrink to a much smaller diameter (120 J/cm^2 image). This shrinkage was not observed when the ghosts formed by irradiation with 60 J/cm^2 of light were incubated without additional light irradiation (data not shown). […] The RBCs were then spun down at low speed and the supernatant was removed from the pelleted cells. Cells were rapidly washed with cold PBS (4°C) and spun down twice. Images are the bright field and TMR confocal fluorescence images before and after washing of the RBCs. During incubation, the interior of RBCs display a dark contrast when compared to the fluorescent peptide present in solution. After washing the cells, no appreciable TMR fluorescence could be detected. It is important to note that RBCs have a weak autofluorescence signal in the TMR channel. […]

The subject of a further series is HeLa cells. Briefly: Photo-induced activity as a function of time in the endocytic pathway (endocytic degradation). The note with it: 3 µM 1 h, washed, read-out of endocytic degradation. The series is classed as cell-based, human. The procedure:
One would expect that TMR-TAT would accumulate within late endosomes and lysosomes over time and that the TAT moiety might be degraded by proteases present in these organelles. If TAT is required for the lytic activity of TMR-TAT, degradation of the peptide should therefore abolish the activity of the compound. On the other hand, riTAT should be resistant to proteolysis and its lytic activity should not be dependent on the incubation time. HeLa cells were treated with TMR-TAT or TMR-riTAT for 1 hour to allow for endocytosis. The cells were then washed and incubated for an additional 1, 4, or 8 hours in L-15 media to allow for the accumulation of the endocytosed peptides into late endosomes and lysosomes. The cells were then observed under the microscope and treated with light as described in the previous paragraph.
Figure 3 Degradation of TMR-TAT in endocytic organelles abolishes photo-induced endosomal release and photocytotoxicity. HeLa cells were incubated with TMR-TAT or TMR-riTAT (3 µM) for 1 h, washed, and incubated at 37°C for an additional 1, 4 or 8 hours. […] The histogram represents the average percentage of cells stained by SYTOX® Blue after peptide and light treatment (the number of cells examined is at least 3000) and the error bars represent the standard deviation (experiments were reproduced at least 3 times).

Where two headings read alike, the source gives them in different places.

Turning to `CN(C)c1ccc2c(c1)Oc1cc(N(C)C)ccc1C21OC(=O)c2cc(C(=O)NCC(=O)N[C@@H](CCCNC(=N)N)C(=O)N[C@@H](CCCCN)C(=O)N[C@@H](CCCCN)C(=O)N[C@@H](CCCNC(=N)N)C(=O)N[C@@H](CCCNC(=N)N)C(=O)N[C@@H](CCC(N)=O)C(=O)N[C@@H](CCCNC(=N)N)C(=O)N[C@@H](CCCNC(=N)N)C(=O)N[C@@H](CCCNC(=N)N)C(=O)NCC(N)=O)ccc21` [TMR-TAT], the “penetration into RBCs” value in the series with red blood cells (RBCs) (10 µM in PBS for 1 hour, washed with cold PBS, confocal fluorescence) is recorded as “does not penetrate RBCs to a large extent”; with red blood cells (RBCs) (1 to 5 µM), “do not penetrate RBCs”. The “photo-induced endosomal release and cell-death after additional incubation” value was “observed” in the series on HeLa cells (additional 1 hour at 37°C in L-15 before irradiation), “reduced” in the series with HeLa cells (additional 4 h at 37°C in L-15 before irradiation) and “completely abolished” in the series with HeLa cells (additional 8 h at 37°C in L-15 before irradiation).

These data come from PMC3056768, “Conjugation to the Cell-Penetrating Peptide TAT Potentiates the Photodynamic Effect of Carboxytetramethylrhodamine” (PLoS ONE, 2011).
